# Legend:
# [1] = molecular target: T1, Cytochrome P450 11B1, mitochondrial (Homo sapiens, UniProt P15538); assay: Inhibition Assay
# T1 sequence (P15538 whole entry): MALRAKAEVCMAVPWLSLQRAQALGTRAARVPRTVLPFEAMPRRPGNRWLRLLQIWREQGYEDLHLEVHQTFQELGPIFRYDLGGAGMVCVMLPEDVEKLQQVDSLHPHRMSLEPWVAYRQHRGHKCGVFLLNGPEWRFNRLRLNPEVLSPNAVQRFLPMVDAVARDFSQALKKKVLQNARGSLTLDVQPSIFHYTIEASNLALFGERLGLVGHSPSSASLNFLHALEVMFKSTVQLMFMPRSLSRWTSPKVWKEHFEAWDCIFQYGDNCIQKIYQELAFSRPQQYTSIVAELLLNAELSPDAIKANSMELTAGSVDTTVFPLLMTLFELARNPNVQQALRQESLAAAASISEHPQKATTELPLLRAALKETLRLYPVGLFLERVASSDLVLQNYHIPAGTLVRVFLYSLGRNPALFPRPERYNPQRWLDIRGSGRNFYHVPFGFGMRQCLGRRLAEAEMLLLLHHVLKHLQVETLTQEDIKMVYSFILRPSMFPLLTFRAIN
# Excerpt: (§1) The expression plasmids contains the ORF for either human/cyno CYP11B1 or CYP11B2 under the control of a suitable promoter (CMV-promoter) and a suitable resistance marker (neomycin). Using standard techniques the expression plasmid is transfected into G-402 cells and these cells are then selected for expressing the given resistance markers. Individual cell-clones are then selected and assessed for displaying the desired enzymatic activity using 11-Deoxycorticosterone (Cyp11B2) or 11-Deoxycortisol (Cyp11B1) as a substrate.G-402 cells expressing CYP11 constructs were established as described above and maintained in McCoy's 5a Medium Modified, ATCC Catalog No. 30-2007 containing 10% FCS and 400 μg/ml G418 (Geneticin) at 37° C. under an atmosphere of 5% CO2/95% air. Cellular enzyme assays were performed in DMEM/F12 medium containing 2.5% charcoal treated FCS and appropriate concentration of substrate (0.3-10 uM 11-Deoxycorticosterone, 11-Deoxycortisol or Corticosterone). For assaying enzymatic activity, cells were plated onto 96 well plates and incubated for 16 h. An aliquot of the supernatant is then transferred and analyzed for the concentration of the expected product (Aldosterone for CYP11B2; Cortisol for CYP11B1). The concentrations of these steroids can be determined using HTRF assays from CisBio analyzing either Aldosterone or Cortisol.
# [2] = molecular target: T2, Cytochrome P450 11B2, mitochondrial (Homo sapiens, UniProt P19099); assay: Inhibition Assay
# T2 sequence (P19099 whole entry): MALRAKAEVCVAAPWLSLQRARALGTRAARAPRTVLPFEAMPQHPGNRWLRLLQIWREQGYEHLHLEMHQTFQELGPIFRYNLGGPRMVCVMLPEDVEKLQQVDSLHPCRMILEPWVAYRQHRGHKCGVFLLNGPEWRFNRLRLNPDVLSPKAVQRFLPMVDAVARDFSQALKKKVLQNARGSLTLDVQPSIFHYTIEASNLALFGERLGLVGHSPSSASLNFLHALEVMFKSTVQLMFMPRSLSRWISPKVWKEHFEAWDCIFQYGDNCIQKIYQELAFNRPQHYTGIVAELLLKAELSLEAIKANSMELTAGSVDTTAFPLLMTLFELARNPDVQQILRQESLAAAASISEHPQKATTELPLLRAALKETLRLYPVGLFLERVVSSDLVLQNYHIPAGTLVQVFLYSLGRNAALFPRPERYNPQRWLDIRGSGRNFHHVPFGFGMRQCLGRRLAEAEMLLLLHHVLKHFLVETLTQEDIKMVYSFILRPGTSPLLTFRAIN
# Excerpt: as §1
structure (smiles),measurement,setting,value
"CC(=O)N1CCC([C@H](C)c2c[nH]nc2-c2ccc3c(c2F)CCC(=O)N3C)CC1 (single isomer, unassigned) [US9796702, 37]",EC50,[1],4580 pM
"CC(=O)N1CCC(C(C)c2c[nH]nc2-c2ccc3c(c2F)CCC(=O)N3C)CC1 (stereo not given) [US9796702, 36]",EC50,[2],3 pM
"CC(=O)N1CCC(C(C)c2c[nH]nc2-c2cc3c(cc2F)N(C)C(=O)CC3)CC1 (racemic) [US9796702, 35]",EC50,[2],5 pM
"CCS(=O)(=O)N1CCC(Cc2c[nH]nc2-c2ccc3c(c2F)CCC(=O)N3C)CC1 [US9796702, 22]",EC50,[2],2 pM
"CN1C(=O)CCc2cc(-c3n[nH]cc3CC3CCN(C(=O)c4cnn(C)c4)CC3)ccc21 [US9796702, 17]",EC50,[2],7 pM
